Assay results as given in paper PMC2248166, “Quantitative peptide binding motifs for 19 human and mouse MHC class I molecules derived using positional scanning combinatorial peptide libraries” (Immunome Research, 2008).

Legend:
[1] = biological target: H-2 D^d (Mus musculus, UniProt P01900); type: binding
[2] = biological target: HLA B*5801 (Homo sapiens, UniProt P01889, A329T/C349S/D201E/D98Y/E176V/E187L/E204Q/E69T/G107R/I218V/I90N/K202T/L105A/L119I/N104I/N87E/Q89R/Q94S/R106L/R155S/R180L/R86G/S101N/S121R/S35A/S48A/T118I/V127L/V306I/V36M/Y140S/Y91M); type: binding
[3] = biological target: HLA A*3001 (Homo sapiens, UniProt P04439, D140H/D185E/E176W/F33S/G80R/H175R/K168Q/R138E/R41S); assay: biochemical; type: binding
[4] = biological target: HLA A*6802 (Homo sapiens, UniProt P04439, A269V/D140Y/D185E/E176V/E277Q/E87N/F33Y/G231S/I121R/I166T/I218V/L180W/L300P/L318F/N151K/P208A/P217A/Q86R/R138H/R169H/S129P/T345S/V36M); type: binding
[5] = biological target: H-2 D^b (Mus musculus, UniProt P01899); type: binding
Chain of H-2 D^b (P01887 21-119): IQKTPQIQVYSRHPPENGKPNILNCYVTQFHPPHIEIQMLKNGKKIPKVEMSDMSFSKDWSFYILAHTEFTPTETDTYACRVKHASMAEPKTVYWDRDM
Chain of H-2 D^b (P01899 25-362): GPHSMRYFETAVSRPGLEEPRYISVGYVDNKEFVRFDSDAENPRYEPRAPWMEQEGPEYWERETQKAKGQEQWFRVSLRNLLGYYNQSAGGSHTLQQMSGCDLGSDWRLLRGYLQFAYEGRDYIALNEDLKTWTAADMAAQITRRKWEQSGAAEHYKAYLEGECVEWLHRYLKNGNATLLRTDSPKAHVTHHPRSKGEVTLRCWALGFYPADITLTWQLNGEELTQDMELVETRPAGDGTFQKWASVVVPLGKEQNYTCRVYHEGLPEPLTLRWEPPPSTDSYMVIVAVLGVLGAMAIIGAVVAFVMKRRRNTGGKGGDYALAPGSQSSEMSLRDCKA

[6] = biological target: HLA B*0801 (Homo sapiens, UniProt P01889, A93T/A95T/D138N/E176V/E187T/K202T/Q94N/R180D/S35A/V36M/Y33D/Y91F); assay: biochemical; type: binding
[7] = biological target: HLA B*0702 (Homo sapiens, UniProt P01889); type: binding; conditions: positional scanning combinatorial 9-mer library; normalized to 1.0 for the best residue at each position
[8] = biological target: HLA A*0201 (Homo sapiens, UniProt P04439, D140Y/D185E/D98H/E176V/E277Q/G131W/G231S/I119V/I121R/I166T/I218V/L300P/L318F/N151K/N90K/P208A/P217A/Q86G/Q94H/R138H/R169H/T345S); conditions: positional scanning combinatorial 9-mer library; normalized to 1.0 for the best residue at each position
[9] = biological target: HLA B*5802 (Homo sapiens, UniProt P01889, A329T/C349S/D201E/D98Y/E176V/E187L/E204Q/E69T/G107R/I218V/I90N/K202T/L105A/N104I/N87E/Q89R/Q94S/R106L/R155S/R180L/R86G/S101N/S121W/S35A/S48A/V127L/V306I/V36M/Y140S/Y91M); type: binding
[10] = biological target: HLA B*5301 (Homo sapiens, UniProt P01889, A329T/A93T/A95T/C349S/D201E/D98Y/E176V/E187L/E204Q/E69T/G107R/I218V/K202T/L105A/L119I/N104I/Q94N/R106L/R155S/R180L/S101N/S121R/S35A/S48A/T118I/V127L/V306I/V36M/Y140S/Y91F); type: binding
[11] = biological target: HLA B*1503 (Homo sapiens, UniProt P01889, A329T/A93T/A95T/C349S/D201E/D98Y/E187L/E204Q/K202T/N87E/Q94N/R155S/R180L/S121R/S35A/V306I/V36M/Y140S/Y91S); assay: biochemical; type: binding
[12] = biological target: HLA B*1501 (Homo sapiens, UniProt P01889, A329T/A93T/A95T/C349S/D201E/D98Y/E187L/E204Q/E69M/E70A/K202T/N87E/Q94N/R155S/R180W/S121R/S35A/S48A/V306I/V36M/Y140S/Y91S); assay: biochemical; type: binding
[13] = biological target: HLA B*3501 (Homo sapiens, UniProt P01889, A329T/A93T/A95T/C349S/D201E/D98Y/E176V/E187L/E204Q/E69T/I218V/K202T/L119I/Q94N/R155S/R180L/S121R/S35A/S48A/T118I/V127L/V306I/V36M/Y140S/Y91F); type: binding
[14] = biological target: HLA B*2705 (Homo sapiens, UniProt P01889, D138H/D201E/E176V/E204Q/G107R/H137Y/K202T/N104T/N87E/Q56L/Q94K/R106L/R155S/R180L/S101D/S121N/S48T/Y140D/Y33H/Y91C); type: binding; conditions: positional scanning combinatorial 9-mer library; normalized to 1.0 for the best residue at each position
[15] = biological target: HLA A*3201 (Homo sapiens, UniProt P04439, A270S/D101S/D185E/E176V/E277Q/F133L/G103R/G107R/G231S/H175R/I121M/I218V/I322F/K168Q/L105A/L300P/L318F/M331R/P208A/P217A/Q94H/R106L/R138Q/S129P/T104I/T323A/T345S/V100E/V321M/V358M); assay: biochemical; type: binding
[16] = biological target: HLA B*5401 (Homo sapiens, UniProt P01889, A329T/C349S/D138N/D201E/E176V/E187T/E204Q/E69G/I76V/K202T/L119W/R155S/R180L/S121T/S35A/S48A/V127L/V306I/V36M/Y140L); type: binding
[17] = biological target: HLA B*5101 (Homo sapiens, UniProt P01889, A329T/A93T/A95T/C349S/D138N/D201E/D98Y/E187L/E204Q/E69T/G107R/I218V/K202T/L105A/L119W/N104I/Q94N/R106L/R155S/R180L/S101N/S121T/S35A/S48A/V306I/V36M/Y195H/Y91F); type: binding
[18] = biological target: H-2 K^k (Mus musculus, UniProt P04223); type: binding
Chain of H-2 K^k (P01887 21-119): as the sequence (P01887 21-119) above
Chain of H-2 K^k (P04223 22-369): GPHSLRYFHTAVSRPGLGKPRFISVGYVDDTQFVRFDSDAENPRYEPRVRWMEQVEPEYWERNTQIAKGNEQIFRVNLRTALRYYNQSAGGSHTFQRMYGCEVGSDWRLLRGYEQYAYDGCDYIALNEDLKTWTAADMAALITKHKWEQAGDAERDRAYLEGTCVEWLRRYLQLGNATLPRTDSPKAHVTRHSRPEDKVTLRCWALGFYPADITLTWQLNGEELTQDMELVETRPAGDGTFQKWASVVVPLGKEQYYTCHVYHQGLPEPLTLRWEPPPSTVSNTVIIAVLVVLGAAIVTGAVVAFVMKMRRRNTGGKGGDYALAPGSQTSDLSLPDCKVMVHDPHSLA

Chain of H-2 D^d (P01900 whole entry, looked up): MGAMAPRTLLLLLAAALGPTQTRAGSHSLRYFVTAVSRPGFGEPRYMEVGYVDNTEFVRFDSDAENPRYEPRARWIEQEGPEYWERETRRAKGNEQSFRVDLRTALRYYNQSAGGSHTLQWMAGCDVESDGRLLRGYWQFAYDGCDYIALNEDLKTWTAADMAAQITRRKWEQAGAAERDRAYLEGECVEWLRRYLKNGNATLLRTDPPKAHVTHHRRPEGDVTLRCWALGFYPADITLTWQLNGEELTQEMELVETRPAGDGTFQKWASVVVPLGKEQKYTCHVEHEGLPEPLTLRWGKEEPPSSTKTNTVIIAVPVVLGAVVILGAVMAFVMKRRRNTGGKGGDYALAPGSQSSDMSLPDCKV

XCXXXXXXX [3064.0022]
Normalized average relative binding affinity (ARB), H-2 Dd [1]: 0.013
Normalized average relative binding affinity (ARB), HLA B*5801 [2]: 0.013
Normalized average relative binding affinity (ARB), HLA A*3001 [3]: 0.15
Normalized average relative binding affinity (ARB), HLA A*6802 [4]: 0.0076
Normalized average relative binding affinity (ARB), H-2 Db [5]: 0.22
Normalized average relative binding affinity (ARB), HLA B*0801 [6]: 0.028
Normalized average relative binding affinity (ARB), HLA B*0702 [7]: 0.0028
Normalized average relative binding affinity (ARB), HLA A*0201 [8]: 0.0016
Normalized average relative binding affinity (ARB), HLA B*5802 [9]: 0.051
Normalized average relative binding affinity (ARB), HLA B*5301 [10]: 0.019
Normalized average relative binding affinity (ARB), HLA B*1503 [11]: 0.0028
Normalized average relative binding affinity (ARB), HLA B*1501 [12]: 0.027
Normalized average relative binding affinity (ARB), HLA B*3501 [13]: 0.067
Normalized average relative binding affinity (ARB), HLA B*2705 [14]: 0.0016
Normalized average relative binding affinity (ARB), HLA A*3201 [15]: 0.028
Normalized average relative binding affinity (ARB), HLA B*5401 [16]: 0.0051
Normalized average relative binding affinity (ARB), HLA B*5101 [17]: 0.079
Normalized average relative binding affinity (ARB), H-2 Kk [18]: 0.010

XDXXXXXXX [3064.0023]
Normalized average relative binding affinity (ARB), H-2 Dd [1]: 0.013
Normalized average relative binding affinity (ARB), HLA B*5801 [2]: 0.0033
Normalized average relative binding affinity (ARB), HLA A*3001 [3]: 0.012
Normalized average relative binding affinity (ARB), HLA A*6802 [4]: 0.0075
Normalized average relative binding affinity (ARB), H-2 Db [5]: 0.036
Normalized average relative binding affinity (ARB), HLA B*0801 [6]: 0.014
Normalized average relative binding affinity (ARB), HLA B*0702 [7]: 0.0029
Normalized average relative binding affinity (ARB), HLA A*0201 [8]: 0.0016
Normalized average relative binding affinity (ARB), HLA B*5802 [9]: 0.030
Normalized average relative binding affinity (ARB), HLA B*5301 [10]: 0.0088
Normalized average relative binding affinity (ARB), HLA B*1503 [11]: 0.0054
Normalized average relative binding affinity (ARB), HLA B*1501 [12]: 0.0094
Normalized average relative binding affinity (ARB), HLA B*3501 [13]: 0.018
Normalized average relative binding affinity (ARB), HLA B*2705 [14]: 0.0016
Normalized average relative binding affinity (ARB), HLA A*3201 [15]: 0.025
Normalized average relative binding affinity (ARB), HLA B*5401 [16]: 0.0009
Normalized average relative binding affinity (ARB), HLA B*5101 [17]: 0.022
Normalized average relative binding affinity (ARB), H-2 Kk [18]: 0.13

XEXXXXXXX [3064.0024]
Normalized average relative binding affinity (ARB), H-2 Dd [1]: 0.014
Normalized average relative binding affinity (ARB), HLA B*5801 [2]: 0.0066
Normalized average relative binding affinity (ARB), HLA A*3001 [3]: 0.025
Normalized average relative binding affinity (ARB), HLA A*6802 [4]: 0.0068
Normalized average relative binding affinity (ARB), H-2 Db [5]: 0.036
Normalized average relative binding affinity (ARB), HLA B*0801 [6]: 0.038
Normalized average relative binding affinity (ARB), HLA B*0702 [7]: 0.0028
Normalized average relative binding affinity (ARB), HLA A*0201 [8]: 0.030
Normalized average relative binding affinity (ARB), HLA B*5802 [9]: 0.066
Normalized average relative binding affinity (ARB), HLA B*5301 [10]: 0.021
Normalized average relative binding affinity (ARB), HLA B*1503 [11]: 0.11
Normalized average relative binding affinity (ARB), HLA B*1501 [12]: 0.20
Normalized average relative binding affinity (ARB), HLA B*3501 [13]: 0.021
Normalized average relative binding affinity (ARB), HLA B*2705 [14]: 0.0016
Normalized average relative binding affinity (ARB), HLA A*3201 [15]: 0.031
Normalized average relative binding affinity (ARB), HLA B*5401 [16]: 0.0026
Normalized average relative binding affinity (ARB), HLA B*5101 [17]: 0.041
Normalized average relative binding affinity (ARB), H-2 Kk [18]: 1.0

XFXXXXXXX [3064.0025]
Normalized average relative binding affinity (ARB), H-2 Dd [1]: 0.074
Normalized average relative binding affinity (ARB), HLA B*5801 [2]: 0.097
Normalized average relative binding affinity (ARB), HLA A*3001 [3]: 0.30
Normalized average relative binding affinity (ARB), HLA A*6802 [4]: 0.017
Normalized average relative binding affinity (ARB), H-2 Db [5]: 0.086
Normalized average relative binding affinity (ARB), HLA B*0801 [6]: 0.14
Normalized average relative binding affinity (ARB), HLA B*0702 [7]: 0.0028
Normalized average relative binding affinity (ARB), HLA A*0201 [8]: 0.0041
Normalized average relative binding affinity (ARB), HLA B*5802 [9]: 0.030
Normalized average relative binding affinity (ARB), HLA B*5301 [10]: 0.018
Normalized average relative binding affinity (ARB), HLA B*1503 [11]: 0.0062
Normalized average relative binding affinity (ARB), HLA B*1501 [12]: 0.099
Normalized average relative binding affinity (ARB), HLA B*3501 [13]: 0.012
Normalized average relative binding affinity (ARB), HLA B*2705 [14]: 0.0016
Normalized average relative binding affinity (ARB), HLA A*3201 [15]: 0.012
Normalized average relative binding affinity (ARB), HLA B*5401 [16]: 0.00055
Normalized average relative binding affinity (ARB), HLA B*5101 [17]: 0.086
Normalized average relative binding affinity (ARB), H-2 Kk [18]: 0.016
